{"source": "patent US20080146540A1", "about": "“Methods of diagnosis and treatment for asthma, allergic rhinitis and other respiratory diseases based on haplotype association” (priority 2003, published 2008)", "key": {"IL-1β [1]": {"system": "IL-1β", "conditions": "standard in vitro pharmacological testing procedures (WO 97/49406); cited from earlier work"}, "TNFα [2]": {"system": "TNFα", "conditions": "standard in vitro pharmacological testing procedures (WO 97/49406); cited from earlier work"}, "TNFα [3]": {"system": "TNFα", "conditions": "lipopolysaccharide challenge; cited from earlier work"}, "[4]": {"system": "subjects with Parkinson disease", "assay": "Rhinitis episodes in subjects with Parkinson disease on CEP-1347", "format": "in vivo, human", "text": "In a study examining for association of the MAP3K9 gene and Allergic Rhinitis, deCODE found an association of certain MAP3K9 haplotypes (Table 7A) with Allergic Rhinits, with RR of approximately 1.4 for each allele carried (p<0.05). The risk was highest in a subgroup of subjects with Allergic Rhinitis alone (RR of 1.6 and p=0.005). Additional support that the MAP3K9 gene may play a role in Allergic Rhinits comes from a study conducted on subjects with Parkinson disease. […] Indeed, none of the subjects in the 50 mg dose group (n=198) developed rhinitis whereas 6 subjects in the placebo group (n=191) developed rhinitis (p=0.01)."}, "[5]": {"molecular_target": "choline acetyltransferase (ChAT)", "conditions": "cited from earlier work"}, "MMP-9": {"system": "MMP-9", "assay": "Phase II clinical study CEP-1347-201: MMP-9 change from baseline", "format": "in vivo, human", "conditions": "for MMP-9 Change from Baseline at Week 8, LS Mean: ANCOVA", "text": "Matrix metalloproteinases (MMPs) are members of a family of proteolytic enzymes that degrade the extracellular matrix and […] tissue inhibitors (TIMPs). Up regulation of MMP-9 results in subepithelial collagen deposition and airway remodeling leading to irreversible airways obstruction in asthma patients. Airway remodeling has and continues to be a research goal of anti-asthma therapies. […] The change in the […] reached statistical significance and the comparison of the pooled CEP-1347 groups versus placebo approached statistical significance (p=0.06)."}, "VCAM-1": {"system": "VCAM-1", "assay": "Phase II clinical study CEP-1347-201: additional biomarkers of inflammation", "format": "in vivo, human", "conditions": "prior to and 4 and 8 weeks after study drug administration; CEP-1347 vs placebo groups", "protocol": "(§1) Biomarkers of inflammation were measured prior to and 4 and 8 weeks after study drug administration."}, "MCP-1": {"system": "MCP-1", "assay": "Phase II clinical study CEP-1347-201: additional biomarkers of inflammation", "format": "in vivo, human", "conditions": "prior to and 4 and 8 weeks after study drug administration; CEP-1347 vs placebo groups", "protocol": "as §1"}, "VEGF": {"system": "VEGF", "assay": "Phase II clinical study CEP-1347-201: additional biomarkers of inflammation", "format": "in vivo, human", "conditions": "prior to and 4 and 8 weeks after study drug administration; CEP-1347 vs placebo groups", "protocol": "as §1"}, "ICAM-1": {"system": "ICAM-1", "assay": "Phase II clinical study CEP-1347-201: additional biomarkers of inflammation", "format": "in vivo, human", "conditions": "prior to and 4 and 8 weeks after study drug administration; CEP-1347 vs placebo groups", "protocol": "as §1"}, "[6]": {"system": "exhaled nitric oxide (eNO)", "assay": "Phase II clinical study CEP-1347-201: exhaled nitric oxide (eNO) change from baseline", "format": "in vivo, human", "conditions": "for eNO Change from Baseline at Week 8, LS Mean: ANCOVA", "text": "eNO has been used as a biomarker for measuring airways inflammation. eNO correlates with eosinophilic inflammation in asthmatic patients and is increased in patients with untreated asthma and decreased with corticosteroid treatment."}, "asthma patients [7]": {"system": "asthma patients", "assay": "Phase II clinical study CEP-1347-201: peak expiratory flow rate (PEFR; ANCOVA at week 8 and longitudinal model of daily PEFR)", "format": "in vivo, human", "conditions": "p=0.15; dose-response shape very similar to morning PEFR"}, "IL-6": {"system": "IL-6", "assay": "Phase II clinical study CEP-1347-201: sputum IL-6", "format": "in vivo, human", "conditions": "samples not collected in a systematic manner"}, "IL-1β [8]": {"system": "IL-1β", "conditions": "lipopolysaccharide challenge; cited from earlier work"}, "asthma patients [9]": {"system": "asthma patients", "conditions": "for patients reporting diarrhea: placebo 8%"}}, "note": "Where two headings read alike, the source gives them in different places."}
{"smiles": "CCSCc1ccc2c(c1)c1c3c(c4c5cc(CSCC)ccc5n5c4c1n2C1CC(O)(C(=O)OC)C5(C)O1)CNC3=O", "note": "(stereo not shown) [CEP-1347]", "values": [{"measurement": "production of IL-1β by cultured cells", "setting": "IL-1β [1]", "result": "inhibit the production"}, {"measurement": "production of TNFα by cultured cells", "setting": "TNFα [2]", "result": "inhibit the production"}, {"measurement": "production of TNFα by mice after LPS challenge", "setting": "TNFα [3]", "result": "reduces production"}, {"measurement": "subjects who developed rhinitis", "setting": "[4]; 50 mg dose group (n=198), 6 subjects in placebo group (n=191), p=0.01", "result": "none"}, {"measurement": "AR episodes (rhinitis episodes)", "setting": "[4]; 50 mg twice daily (bid), N=198, placebo 6 (N=191), p = 0.01", "result": 0}, {"measurement": "EC50", "setting": "[5]; greater potency than K-252a, read-out: potency (EC50) in spinal cord ChAT assays", "result": 50, "unit": "nM"}, {"measurement": "efficacy in spinal cord ChAT assays", "setting": "[5]; greater than K-252a", "result": "250 % of control"}, {"measurement": "MMP 9 Change from baseline, Mean", "setting": "MMP-9; 10 mg BID, 4 Weeks", "result": -89.2, "unit": "pg/mL"}, {"measurement": "MMP 9 Change from baseline, Median", "setting": "MMP-9; 10 mg BID, 4 Weeks", "result": -79.4, "unit": "pg/mL"}, {"measurement": "MMP 9 Observed Values, Mean", "setting": "MMP-9; 10 mg BID, 4 Weeks", "result": 723.4, "unit": "pg/mL"}, {"measurement": "MMP 9 Observed Values, Median", "setting": "MMP-9; 10 mg BID, 4 Weeks", "result": 636.5, "unit": "pg/mL"}, {"measurement": "MMP 9 Change from baseline, Mean", "setting": "MMP-9; 10 mg BID, 8 Weeks", "result": -108.5, "unit": "pg/mL"}, {"measurement": "MMP 9 Change from baseline, Median", "setting": "MMP-9; 10 mg BID, 8 Weeks", "result": -87.6, "unit": "pg/mL"}, {"measurement": "MMP 9 Observed Values, Mean", "setting": "MMP-9; 10 mg BID, 8 Weeks", "result": 687.4, "unit": "pg/mL"}, {"measurement": "MMP 9 Observed Values, Median", "setting": "MMP-9; 10 mg BID, 8 Weeks", "result": 596.2, "unit": "pg/mL"}, {"measurement": "MMP-9 Change from Baseline at Week 8, LS Mean", "setting": "MMP-9; 10 mg BID, p 0.23", "result": "−98.4"}, {"measurement": "MMP-9 change from baseline at week 8 (ANCOVA)", "setting": "MMP-9; 25 mg BID group relative to placebo, p=0.04", "result": "statistically significant reduction"}, {"measurement": "MMP 9 Change from baseline, Mean", "setting": "MMP-9; 25 mg BID, 4 Weeks", "result": -104.2, "unit": "pg/mL"}, {"measurement": "MMP 9 Change from baseline, Median", "setting": "MMP-9; 25 mg BID, 4 Weeks", "result": -104.8, "unit": "pg/mL"}, {"measurement": "MMP 9 Observed Values, Mean", "setting": "MMP-9; 25 mg BID, 4 Weeks", "result": 660.4, "unit": "pg/mL"}, {"measurement": "MMP 9 Observed Values, Median", "setting": "MMP-9; 25 mg BID, 4 Weeks", "result": 623.4, "unit": "pg/mL"}, {"measurement": "MMP 9 Change from baseline, Mean", "setting": "MMP-9; 25 mg BID, 8 Weeks", "result": -147.6, "unit": "pg/mL"}, {"measurement": "MMP 9 Change from baseline, Median", "setting": "MMP-9; 25 mg BID, 8 Weeks", "result": -85.0, "unit": "pg/mL"}, {"measurement": "MMP 9 Observed Values, Mean", "setting": "MMP-9; 25 mg BID, 8 Weeks", "result": 633.5, "unit": "pg/mL"}, {"measurement": "MMP 9 Observed Values, Median", "setting": "MMP-9; 25 mg BID, 8 Weeks", "result": 582.1, "unit": "pg/mL"}, {"measurement": "MMP-9 Change from Baseline at Week 8, LS Mean", "setting": "MMP-9; 25 mg BID, p 0.04", "result": "−144"}, {"measurement": "MMP 9 Change from baseline, Mean", "setting": "MMP-9; 50 mg BID, 4 Weeks", "result": -82.4, "unit": "pg/mL"}, {"measurement": "MMP 9 Change from baseline, Median", "setting": "MMP-9; 50 mg BID, 4 Weeks", "result": -63.6, "unit": "pg/mL"}, {"measurement": "MMP 9 Observed Values, Mean", "setting": "MMP-9; 50 mg BID, 4 Weeks", "result": 704.1, "unit": "pg/mL"}, {"measurement": "MMP 9 Observed Values, Median", "setting": "MMP-9; 50 mg BID, 4 Weeks", "result": 704.2, "unit": "pg/mL"}, {"measurement": "MMP 9 Change from baseline, Mean", "setting": "MMP-9; 50 mg BID, 8 Weeks", "result": -114.0, "unit": "pg/mL"}, {"measurement": "MMP 9 Change from baseline, Median", "setting": "MMP-9; 50 mg BID, 8 Weeks", "result": -60.1, "unit": "pg/mL"}, {"measurement": "MMP 9 Observed Values, Mean", "setting": "MMP-9; 50 mg BID, 8 Weeks", "result": 682.5, "unit": "pg/mL"}, {"measurement": "MMP 9 Observed Values, Median", "setting": "MMP-9; 50 mg BID, 8 Weeks", "result": 655.1, "unit": "pg/mL"}, {"measurement": "MMP-9 Change from Baseline at Week 8, LS Mean", "setting": "MMP-9; 50 mg BID, p 0.19", "result": "−104"}, {"measurement": "MMP-9 change from baseline at week 8 (ANCOVA)", "setting": "MMP-9; all CEP-1347 treatment groups relative to placebo, pooled groups vs placebo p=0.06", "result": "greater reduction"}, {"measurement": "concentration of VCAM-1", "setting": "VCAM-1", "result": "No differences"}, {"measurement": "concentration of MCP-1", "setting": "MCP-1", "result": "No differences"}, {"measurement": "concentration of VEGF", "setting": "VEGF", "result": "No differences"}, {"measurement": "concentration of ICAM-1", "setting": "ICAM-1", "result": "No differences"}, {"measurement": "eNO Change from Baseline at Week 8, LS Mean", "setting": "[6]; 10 mg BID, p 0.26", "result": "−4.86"}, {"measurement": "eNO Change from Baseline at Week 8, LS Mean", "setting": "[6]; 25 mg BID, p 0.86", "result": "−1.88"}, {"measurement": "eNO Change from Baseline at Week 8, LS Mean", "setting": "[6]; 50 mg BID, p 0.58", "result": "−3.08"}, {"measurement": "eNO change from baseline at week 8 (ANCOVA)", "setting": "[6]; all CEP-1347 treatment groups relative to placebo, none of the changes achieved statistical significance", "result": "greater decrease"}, {"measurement": "daily evening PEFR, CEP-1347 effect in longitudinal model", "setting": "asthma patients [7]", "result": "borderline significant"}, {"measurement": "sputum IL-6 (ANCOVA)", "setting": "IL-6", "result": "no clear treatment related trends or statistically significant changes"}, {"measurement": "production of IL-1β by mice after LPS challenge", "setting": "IL-1β [8]", "result": "reduces production"}, {"measurement": "subjects reporting a severe adverse event", "setting": "asthma patients [9]; 10 mg BID group", "result": 2}, {"measurement": "subjects reporting a severe adverse event", "setting": "asthma patients [9]; 25 mg BID group", "result": 1}, {"measurement": "subjects reporting a severe adverse event", "setting": "asthma patients [9]; 50 mg BID group", "result": 1}, {"measurement": "patients reporting diarrhea", "setting": "asthma patients [9]; CEP-1347 groups, all doses combined", "result": 15, "unit": "%"}, {"measurement": "subjects reporting a severe adverse event, total", "setting": "asthma patients [9]; all groups", "result": "four"}, {"measurement": "patients reporting diarrhea", "setting": "asthma patients [9]; high dose group (50 mg BID)", "result": 20, "unit": "%"}, {"measurement": "headache incidence", "setting": "asthma patients [9]; treatment group (all CEP-1347 doses), placebo 5%", "result": 9, "unit": "%"}, {"measurement": "deaths", "setting": "asthma patients [9]; whole study", "result": "no deaths"}]}
